Experiment: xn = mol fraction of the nth substance listed
Conditions: Liquid; for mass density: Vibrating tube method; for speed of sound: Frequency=3 MHz, Pulse-echo method

CCOC(F)(C(F)(F)C(F)(F)C(F)(F)F)C(F)(C(F)(F)F)C(F)(F)F (stereo not given) [2-trifluoromethyl-3-ethoxydodecafluorohexane] + CC(C)OC(C)C
Conditions	mass density, x1 = 0.25 [kg/m3]	mass density, x1 = 0.375 [kg/m3]	mass density, x1 = 0.5 [kg/m3]	mass density, x1 = 0.625 [kg/m3]	mass density, x1 = 0.75 [kg/m3]	speed of sound, x1 = 0.25 [m/s]	speed of sound, x1 = 0.375 [m/s]	speed of sound, x1 = 0.5 [m/s]	speed of sound, x1 = 0.625 [m/s]	speed of sound, x1 = 0.75 [m/s]
333.15 K, 100000 kPa	–	–	–	–	1580.9	–	–	–	–	–
333.15 K, 110000 kPa	1138.5	1274.2	1393.9	1499.9	1591.8	–	–	–	–	–
333.15 K, 120000 kPa	1146.4	1282.9	1403.2	1509.7	1602.1	–	–	–	–	–
333.15 K, 130000 kPa	1153.9	1291.2	1412.1	1519.2	1611.9	–	–	–	–	–
333.15 K, 140000 kPa	1160.9	1299	1420.5	1528.1	1621.2	–	–	–	–	–
343.15 K, 100 kPa	–	1091.4	1197	1291.8	1376.3	–	588	563	550.5	540.2
343.15 K, 10000 kPa	1000.6	1121.3	1229.2	1325.6	1411.1	–	–	–	–	–
343.15 K, 20000 kPa	1021.9	1145.1	1254.7	1352.4	1438.8	792.6	745.6	714	697.6	681.6
343.15 K, 30000 kPa	1039.6	1164.8	1275.9	1374.8	1462	–	–	–	–	–
343.15 K, 40000 kPa	1055.2	1182.1	1294.4	1394.4	1482.3	911.7	858.7	822.8	803.3	783.8
343.15 K, 50000 kPa	1068.8	1197.3	1310.8	1411.7	1500.3	–	–	–	–	–
343.15 K, 60000 kPa	1081.1	1210.9	1325.4	1427.3	1516.5	1007.3	949.5	911	889.2	867
343.15 K, 70000 kPa	1092.4	1223.4	1338.9	1441.4	1531.3	–	–	–	–	–
343.15 K, 80000 kPa	1102.8	1234.9	1351.3	1454.6	1544.9	1089.6	1026.7	987	963.1	938.2
343.15 K, 90000 kPa	1112.5	1245.7	1362.8	1466.8	1557.6	–	–	–	–	–
343.15 K, 100000 kPa	1121.5	1255.8	1373.5	1478.2	1569.5	1161.8	1095.1	1054.1	1028.7	1001.7
343.15 K, 110000 kPa	1130.1	1265.3	1383.8	1489.1	1580.8	–	–	–	–	–
343.15 K, 120000 kPa	1138.2	1274.2	1393.3	1499.3	1591.4	–	–	–	–	–
343.15 K, 130000 kPa	1145.9	1282.7	1402.5	1509.1	1601.6	–	–	–	–	–
343.15 K, 140000 kPa	1153.3	1290.7	1411.2	1518.2	1611.2	–	–	–	–	–
353.15 K, 100 kPa	–	–	–	1271.2	1355.1	–	–	–	–	512.6
353.15 K, 10000 kPa	986.5	1105.6	1212.9	1308.2	1393	–	–	–	–	–
353.15 K, 20000 kPa	1009.3	1131.2	1240.1	1337	1422.7	767.9	724.5	692.8	676.5	660.7
353.15 K, 30000 kPa	1028.2	1152.3	1262.7	1360.8	1447.4	–	–	–	–	–
353.15 K, 40000 kPa	1044.4	1170.2	1281.9	1381.2	1468.5	889.5	841.4	804.5	785.2	765.7
353.15 K, 50000 kPa	1058.7	1186	1298.8	1399.2	1487.3	–	–	–	–	–
353.15 K, 60000 kPa	1071.6	1200.3	1314.2	1415.5	1504.2	986.5	935.6	894	872.6	850.4
353.15 K, 70000 kPa	1083.3	1213.3	1328.1	1430.3	1519.5	–	–	–	–	–
353.15 K, 80000 kPa	1094.2	1225.2	1340.9	1443.9	1533.7	–	1015.6	971	947.8	923.1
353.15 K, 90000 kPa	1104.1	1236.2	1352.7	1456.5	1546.8	–	–	–	–	–
353.15 K, 100000 kPa	1113.4	1246.6	1363.8	1468.2	1559	1142.6	–	1039.1	1014.4	987.2
353.15 K, 110000 kPa	1122.1	1256.3	1374.2	1479.2	1570.4	–	–	–	–	–
353.15 K, 120000 kPa	1130.4	1265.4	1384.1	1489.7	1581.4	–	–	–	–	–
353.15 K, 130000 kPa	1138.3	1274.2	1393.5	1499.7	1591.7	–	–	–	–	–
353.15 K, 140000 kPa	1145.6	1282.4	1402.4	1509	1601.4	–	–	–	–	–
363.15 K, 10000 kPa	972.2	1089.6	1196.4	1290.3	1374.4	–	–	–	–	–
363.15 K, 20000 kPa	996.8	1117.1	1225.6	1321.2	1406.2	–	–	–	–	–
363.15 K, 30000 kPa	1016.8	1139.3	1249.3	1346.4	1432.1	–	–	–	–	–
363.15 K, 40000 kPa	1033.8	1158.1	1269.5	1367.8	1454.3	–	–	–	–	–
363.15 K, 50000 kPa	1048.7	1174.8	1287.3	1386.6	1473.8	–	–	–	–	–
363.15 K, 60000 kPa	1062	1189.6	1303.1	1403.4	1491.2	–	–	–	–	–

Reference: the NIST ThermoML archive (doi:10.1016/j.jct.2018.08.005)
